According to ChEMBL document CHEMBL1131984, “Synthesis and antitumour activity of novel diterpenequinone salvicine and the analogs” (Bioorg Med Chem Lett, 1999):
“And” between values parts separate entries of the source, which are not always exact repeats. Equal entries are not always repeated.

How the values were obtained:
HL-60 = test: In vitro cytotoxic activity against HL-60 human leukemia cell line by MTT assay (microculture terazolium colorimetric); format: functional, cell-based
SPC-A4 = test: In vitro cytotoxic activity against SPC-A4 lung cancer solid tumor cell line by MTT assay (microculture terazolium colorimetric); format: functional, cell-based; settings: Homo sapiens
P388 = test: In vitro cytotoxic activity against P388 mouse leukemia cell line by MTT assay (microculture terazolium colorimetric); format: functional, cell-based
SGC-7901 = test: In vitro cytotoxic activity against SGC-7901 stomach cancer solid tumor cell line by MTT assay (microculture terazolium colorimetric); format: functional, cell-based; settings: Homo sapiens
Mus musculus [1] = test: (§1) Ratio of the tumor weight of mice at the initial stage and the final stage of the experiment was reported at a dose of 7.5 mg/kg (day 7); format: functional
Mus musculus [2] = test: (§2) In vivo inhibitory activity against murine S-180 sarcoma at a dose of 15 mg/kg (day 6); format: functional; settings: S-180, 144 h
Mus musculus [3] = test: as §1; format: functional; remark: listed apart in the source
Mus musculus [4] = test: (§3) In vivo inhibitory activity against murine S-180 sarcoma at a dose of 7.5 mg/kg (day 7); format: functional; settings: S-180, 168 h
Mus musculus [5] = test: In vivo inhibitory activity against murine Lewis lung cancer at a dose of 37.5 mg/kg i.p. (day10); format: functional; settings: route intraperitoneal
Mus musculus [6] = test: (§4) Ratio of the tumor weight of mice at the initial stage and the final stage of the experiment was reported at a dose of 30 mg/kg (Q2dx10) administered i.p.; format: functional; settings: route intraperitoneal
Mus musculus [7] = test: (§5) Ratio of the tumor weight of mice at the initial stage and the final stage of the experiment was reported at a dose of 15 mg/kg i.p. (day 9); format: functional; settings: route intraperitoneal
Mus musculus [8] = test: In vivo inhibitory activity against human lung adenocarcinoma xenograft A-549 in mice at a dose of 20 mg/kg (Q2dx9) administered i.p.; format: functional; settings: A549, ip, route intraperitoneal
Mus musculus [9] = test: In vivo inhibitory activity against murine S-180 sarcoma at a dose of 7.5 mg/kg i.p. (day 7); format: functional; settings: S-180, ip, 168 h, route intraperitoneal
Mus musculus [10] = test: as §5; format: functional; settings: route intraperitoneal; remark: listed apart in the source
Mus musculus [11] = test: (§6) Ratio of the tumor weight of mice at the initial stage and the final stage of the experiment was reported at a dose of 7.5 mg/kg i.p. (day 10); format: functional; settings: route intraperitoneal
Mus musculus [12] = test: In vivo inhibitory activity against human lung adenocarcinoma xenograft LAX-83 in mice at a dose of 10 mg/kg (Q2dx10) administered i.p.; format: functional; settings: route intraperitoneal; for inhibition in vivo at 10 mg/kg: ip
Mus musculus [13] = test: as §2; format: functional; settings: S-180, 144 h; remark: listed apart in the source
Mus musculus [14] = test: In vivo inhibitory activity against human lung adenocarcinoma xenograft A-549 in mice at a dose of 30 mg/kg (Q2dx9) administered i.p.; format: functional; settings: A549, ip, route intraperitoneal
Mus musculus [15] = test: In vivo inhibitory activity against murine Lewis lung cancer at a dose of 15 mg/kg i.p. (day10); format: functional; settings: route intraperitoneal
Mus musculus [16] = test: Ratio of the tumor weight of mice at the initial stage and the final stage of the experiment was reported at a dose of 3.75 mg/kg i.p. (day 7); format: functional; settings: route intraperitoneal
Mus musculus [17] = test: Ratio of the tumor weight of mice at the initial stage and the final stage of the experiment was reported at a dose of 20 mg/kg (Q2dx10) administered i.p.; format: functional; settings: route intraperitoneal
Mus musculus [18] = test: In vivo inhibitory activity against human lung adenocarcinoma xenograft A-549 in mice at a dose of 30 mg/kg (Q2dx10) administered i.p.; format: functional; settings: route intraperitoneal
Mus musculus [19] = test: Ratio of the tumor weight of mice at the initial stage and the final stage of the experiment was reported at a dose of 3.75 mg/kg (day 7); format: functional
Mus musculus [20] = test: Ratio of the tumor weight of mice at the initial stage and the final stage of the experiment was reported at a dose of 10 mg/kg (Q2dx10) administered i.p.; format: functional; settings: route intraperitoneal
Mus musculus [21] = test: In vivo inhibitory activity against human lung adenocarcinoma xenograft LAX-83 in mice at a dose of 20 mg/kg (Q2dx10) administered i.p.; format: functional; settings: route intraperitoneal
Mus musculus [22] = test: (§7) Ratio of the tumor weight of mice at the initial stage and the final stage of the experiment was reported at a dose of 15 mg/kg (day 6); format: functional
Mus musculus [23] = test: In vivo inhibitory activity against human lung adenocarcinoma xenograft LAX-83 in mice at a dose of 30 mg/kg (Q2dx10) administered i.p.; format: functional; settings: route intraperitoneal
Mus musculus [24] = test: as §4; format: functional; settings: route intraperitoneal; remark: listed apart in the source
Mus musculus [25] = test: In vivo inhibitory activity against human lung adenocarcinoma xenograft A-549 in mice at a dose of 10 mg/kg (Q2dx9) administered i.p.; format: functional; settings: A549, ip, route intraperitoneal
Mus musculus [26] = test: In vivo inhibitory activity against human lung adenocarcinoma xenograft A-549 in mice at a dose of 10 mg/kg (Q2dx10) administered i.p.; format: functional; settings: route intraperitoneal
Mus musculus [27] = test: Ratio of the tumor weight of mice at the initial stage and the final stage of the experiment was reported at a dose of 3.75 mg/kg i.p. (day 10); format: functional; settings: route intraperitoneal
Mus musculus [28] = test: as §3; format: functional; settings: S-180, 168 h; remark: listed apart in the source
Mus musculus [29] = test: In vivo inhibitory activity against murine S-180 sarcoma at a dose of 3.75 mg/kg (day 7); format: functional; settings: S-180, 168 h
Mus musculus [30] = test: as §7; format: functional; remark: listed apart in the source
Mus musculus [31] = test: In vivo inhibitory activity against murine Lewis lung cancer at a dose of 7.5 mg/kg i.p. (day10); format: functional; settings: ip, 240 h, route intraperitoneal
Mus musculus [32] = test: Ratio of the tumor weight of mice at the initial stage and the final stage of the experiment was reported at a dose of 30 mg/kg (Q2dx9) administered i.p.; format: functional; settings: route intraperitoneal
Mus musculus [33] = test: Ratio of the tumor weight of mice at the initial stage and the final stage of the experiment was reported at a dose of 20 mg/kg (Q2dx9) administered i.p.; format: functional; settings: route intraperitoneal
Mus musculus [34] = test: In vivo inhibitory activity against human lung adenocarcinoma xenograft A-549 in mice at a dose of 20 mg/kg (Q2dx10) administered i.p.; format: functional; settings: route intraperitoneal
Mus musculus [35] = test: In vivo inhibitory activity against murine S-180 sarcoma at a dose of 3.75 mg/kg i.p. (day 7); format: functional; settings: S-180, ip, 168 h, route intraperitoneal
Mus musculus [36] = test: as §6; format: functional; settings: route intraperitoneal; remark: listed apart in the source
Mus musculus [37] = test: In vivo inhibitory activity against murine S-180 sarcoma at a dose of 15 mg/kg i.p. (day 6); format: functional; settings: S-180, ip, 144 h, route intraperitoneal

Cc1ccc2c(c1CCC(Br)C(C)(C)O)C(=O)C(=O)C(C(C)C)=C2 (stereo unspecified)
IC50 (HL-60): 4610 nM
IC50 (SPC-A4): 1450 nM
IC50 (P388): 3990 nM
IC50 (SGC-7901): 6120 nM

Cc1ccc2c(c1CCC(=O)C(C)C)C(=O)C(=O)C(C(C)C)=C2
IC50 (HL-60): 270 nM
IC50 (SPC-A4): 3380 nM
IC50 (P388): 830 nM
IC50 (SGC-7901): 1980 nM

Cc1ccc2c(c1CCC(=O)O)C(=O)C(=O)C(C(C)C)=C2
IC50 (HL-60): 2840 nM
IC50 (SPC-A4): 2620 nM
IC50 (P388): 1460 nM
IC50 (SGC-7901): 66900 nM

Cc1ccc2cc(C(C)C)c(=O)oc(=O)c2c1CCC(=O)C(C)C
IC50 (HL-60): 1430 nM
IC50 (SPC-A4): 2760 nM
IC50 (P388): 1470 nM
IC50 (SGC-7901): 89600 nM

Cc1ccc2c(c1CCC=O)C(=O)C(=O)C(C(C)C)=C2
IC50 (HL-60): 2390 nM
IC50 (SPC-A4): 2680 nM
IC50 (P388): 1780 nM
IC50 (SGC-7901): 52400 nM

Cc1ccc2c(c1CCC(O)C(C)(C)O)C(=O)C(=O)C(C(C)C)=C2 (stereo unspecified)
IC50 (HL-60): 3570 nM
Tumor weight (Mus musculus [1]): 1.07 g and 1.4 g
inhibition in vivo at 15 mg/kg (Mus musculus [2]): 48.9%
Tumor weight (Mus musculus [3]): 1.22 g
inhibition in vivo at 7.5 mg/kg (Mus musculus [4]): 35.5%
inhibition in vivo at 37.5 mg/kg (Mus musculus [5]; Mus musculus, Lung, ip, 240 h): 12.9%
Inhibition (Mus musculus [5]; 37.5 mg/kg): 7.5%
Tumor weight (Mus musculus [6]): 0.72 g and 0.53 g and 1.02 g
Tumor weight (Mus musculus [7]): 0.91 g
inhibition in vivo at 20 mg/kg (Mus musculus [8]): 53.6%
inhibition in vivo at 7.5 mg/kg (Mus musculus [9]): 48.9%
Tumor weight (Mus musculus [10]): 0.75 g
IC50 (SPC-A4): 2460 nM
Tumor weight (Mus musculus [11]): 1.32 g
inhibition in vivo at 10 mg/kg (Mus musculus [12]; Mus musculus): 41%
inhibition in vivo at 10 mg/kg (Mus musculus [12]): 28%
Inhibition (Mus musculus [12]; 10 mg/kg): 31.23%
inhibition in vivo at 15 mg/kg (Mus musculus [13]): 44%
inhibition in vivo at 30 mg/kg (Mus musculus [14]): 51.2%
inhibition in vivo at 15 mg/kg (Mus musculus [15]; Mus musculus, Lung, ip, 240 h): 49%
Inhibition (Mus musculus [15]; 15 mg/kg): 54.5%
Tumor weight (Mus musculus [16]): 1.52 g
Tumor weight (Mus musculus [17]): 1.25 g [middle of 5 runs]
Inhibition (Mus musculus [18]): 55.6% and 80.14%
Tumor weight (Mus musculus [19]): 1.99 g and 1.72 g
IC50 (P388): 3490 nM
Tumor weight (Mus musculus [20]): 1.13 g [middle of 5 runs]
Inhibition (Mus musculus [21]): 26.73% and 17.53% and 9.39%
Tumor weight (Mus musculus [22]): 0.92 g and 1.06 g
Inhibition (Mus musculus [23]): 40.31% and 51.42% and 61.59%
Tumor weight (Mus musculus [24]): 0.93 g and 0.44 g
inhibition in vivo at 10 mg/kg (Mus musculus [25]): 25.5%
inhibition in vivo at 10 mg/kg (Mus musculus [26]; Mus musculus, A549, ip): 48.2%
Inhibition (Mus musculus [26]; 10 mg/kg): 30.15%
Tumor weight (Mus musculus [27]): 1.28 g and 1.85 g
inhibition in vivo at 7.5 mg/kg (Mus musculus [28]): 32.2%
inhibition in vivo at 3.75 mg/kg (Mus musculus [29]): 8.4%
Tumor weight (Mus musculus [30]): 0.93 g
inhibition in vivo at 7.5 mg/kg (Mus musculus [31]): 34%
IC50 (SGC-7901): 1840 nM
Tumor weight (Mus musculus [32]): 1.67 g
Tumor weight (Mus musculus [33]): 1.59 g
Inhibition (Mus musculus [34]): 60.55% and 27.76%
inhibition in vivo at 3.75 mg/kg (Mus musculus [35]): 37.2%
Tumor weight (Mus musculus [36]): 0.97 g
inhibition in vivo at 15 mg/kg (Mus musculus [37]): 61.3%
